Tests used:
[1] = system: SweAPP N2a cells; conditions: free EGCG (Rezai-Zadeh et al., 2005); cited from earlier work
[2] = oral dose of 800 mg/70 kg/day; cited from earlier work
[3] = Total EGCG concentration in blood and brain tissues after 4 weeks of treatment; format: in vivo; conditions: after 4 weeks of treatment at a maximum dose (300 mg/kg)
[4] = Water solubility of EGCG; format: physicochemical

O=C(O[C@@H]1Cc2c(O)cc(O)cc2O[C@@H]1c1cc(O)c(O)c(O)c1)c1cc(O)c(O)c(O)c1 [EGCG, (−)-epigallocatechin-3-gallate]
EGCG concentration necessary for promoting APP α-secretase cleavage [1]: 1000 to 2000 ng/mL | EGCG in human plasma [2]: approximately 400 ng/ml | total EGCG concentration in blood and brain tissues [3]: 1000 to 1300 ng/mL | water solubility [4]: poorly water soluble

From patent US8906414B1, “Methods and compositions for improving bioavailability of epigallocatechin gallate (EGCG)” (University of South Florida, priority 2009, dated 2014)
